Experiments:
[1] = tested on: IL-17; assay: IL-17 sandwich ELISA, Example 8-3; assay type: cell-based, mouse; conditions: incubated supernatant
Experimental: (§1) In order to evaluate an arthritis therapeutic effect of the biguanide derivative compound of the present invention, in a rheumatoid arthritis animal model, cytotoxicity, generation of autoantibody, expression of inflammatory cytokines and regulatory T cells (Treg), and osteoclast differentiation were measured. Like Examples, metformin was used as a control group. In order to evaluate an effect of suppressing the expression of the inflammatory cytokine of the biguanide derivative compound of the present invention, the incubated supernatant was collected and the expression degrees of IL-17 and TNF-α of a mouse were examined by using a sandwich ELISA. […] of a monoclonal anti-IL-17 or anti-TNF-α was reacted in a 96-well plate at 4° C. overnight and then a non-specific binding was blocked by a blocking solution (1% BSA/PBST) after the reaction. An IL-17 or TNF-α recombinant was continuously diluted by 1/2 to be used as a standard, added with the cell-incubated supernatant, and reacted at room temperature for 2 hrs. Thereafter, biotinylated anti-IL-17 or anti-TNF-α was added and reacted at room temperature for 2 hrs, washed four times after the reaction, diluted with a diluted ExtraAvidin-alkaline phosphatase conjugate, and reacted at room temperature for 2 hrs. After the reaction, a PNPP/DEA was added and colored, and absorbance was measured at a wavelength of 405 nm.

[2] = tested on: Foxp3+ Treg cells; assay: Regulatory T cell (Treg) expression by flow cytometry, Example 8-3; assay type: cell-based, mouse; conditions: anti-CD4, anti-CD25, anti Foxp3
Experimental: In order to evaluate an arthritis therapeutic effect of the biguanide derivative compound of the present invention, in a rheumatoid arthritis animal model, cytotoxicity, generation of autoantibody, expression of inflammatory cytokines and regulatory T cells (Treg), and osteoclast differentiation were measured. Like Examples, metformin was used as a control group. Further, in order to examine whether the biguanide derivative compound of the present invention activates the expression of regulatory T cells (Treg), the incubated cells were flow-cytometry by using anti-CD4-percp, anti-CD25-APC, and anti Foxp3-Pe fluorescent antibodies (ab), and as a result, it was verified that SD-196, 216 and 217 activated the Foxp3+ Treg cells (see FIG. 10).

[3] = tested on: IL-17; assay: IL-17 expression in rheumatoid arthritis disease model with metabolic syndrome; assay type: cell-based
Experimental: as §1, with “In” for “In order to evaluate an arthritis therapeutic effect of the biguanide derivative compound of the present invention, in a rheumatoid arthritis animal model, cytotoxicity, generation of autoantibody, expression of inflammatory cytokines and regulatory T cells (Treg), and osteoclast differentiation were measured. Like Examples, metformin was used as a control group. In”
(§2) Further, the incubated cells were analyzed by flow cytometry using anti-CD4-percp and anti-IL-17-Pe fluorescent antibodies, and as a result, it was verified that SD-196, 216 and 217 suppressed the activity of Th17 and simultaneously activated the expression of the regulatory T cells (Treg) (see FIG. 13).

[4] = Cytotoxicity (MTT) in lupus animal model; assay type: cell-based
Experimental: (§3) In order to examine cytotoxicity of the biguanide derivative compound of the present invention, an MTT assay was performed. Cells were isolated from the spleen in a normal mouse group and the isolated cells were incubated for 3 days in the concentration of 0.5 μg/ml of anti-CD3 or 100 ng/ml of LPS 100, and metformin, SD-196, SD-216 or SD-217 was treated for each concentration and incubated for 3 days. […] In order to evaluate a lupus therapeutic effect of the biguanide derivative compound of the present invention, in a lupus animal model, cytotoxicity, autoantibody generation, generation of inflammatory cytokines, and Th17 regulation were measured by the same method as Example 8.

[5] = tested on: TNF-α; assay: TNF-α expression in lupus animal model; assay type: cell-based
Experimental: as §1, with “In” for “In order to evaluate an arthritis therapeutic effect of the biguanide derivative compound of the present invention, in a rheumatoid arthritis animal model, cytotoxicity, generation of autoantibody, expression of inflammatory cytokines and regulatory T cells (Treg), and osteoclast differentiation were measured. Like Examples, metformin was used as a control group. In”
(§4) In order to evaluate a lupus therapeutic effect of the biguanide derivative compound of the present invention, in a lupus animal model, cytotoxicity, autoantibody generation, generation of inflammatory cytokines, and Th17 regulation were measured by the same method as Example 8.

[6] = tested on: Th17; assay: Th17 activity in lupus animal model; assay type: cell-based
Experimental: as §2, §4

[7] = tested on: normal cells; assay: Cytotoxicity (MTT) in normal (human) cells; assay type: cell-based
Experimental: as §3, with “development possibility” for “lupus therapeutic effect”, “invention as an agent for preventing or treating immune diseases, effects of modulating cytotoxicity and” for “invention, in a lupus animal model, cytotoxicity, autoantibody generation,”, “cytokines by targeting normal cells” for “cytokines, and Th17 regulation”

[8] = tested on: TNF-α; assay: TNF-α expression in normal (human) cells; assay type: cell-based; conditions: compared with metformin
Experimental: as §1, with “In” for “In order to evaluate an arthritis therapeutic effect of the biguanide derivative compound of the present invention, in a rheumatoid arthritis animal model, cytotoxicity, generation of autoantibody, expression of inflammatory cytokines and regulatory T cells (Treg), and osteoclast differentiation were measured. Like Examples, metformin was used as a control group. In”
In order to evaluate a development possibility of the biguanide derivative compound of the present invention as an agent for preventing or treating immune diseases, effects of modulating cytotoxicity and generation of inflammatory cytokines by targeting normal cells were measured by the same method as Example 8.

Row | SMILES | IL-17 inflammatory cytokine expression [1] | Foxp3+ Treg cells [2] | expression of IL-17 [3] | cytotoxicity [4] | expression of TNF-α [5] | activity of Th17 [6] | cytotoxicity [7] | expression of TNF-α [8]
1 | CC(C)NC(=N)NC(=N)N [SD-000196, 1-isopropylbiguanide] | significantly suppressed | activated | suppressed | no cytotoxicity | suppressed | suppressed | – | –
2 | NC(N)=N/C(N)=N/c1cccc(F)c1 [SD-000216, 1-(3-fluorophenyl)biguanide] | significantly suppressed | activated | suppressed | no cytotoxicity | suppressed | suppressed | no cytotoxicity | suppressed
3 | N=C(N)NC(=N)Nc1ccc(F)cc1F [SD-000217, 1-(2,4-difluorophenyl)biguanide] | significantly suppressed | activated | suppressed | no cytotoxicity | suppressed | suppressed | no cytotoxicity | suppressed
